{"source": "patent US10562891B2", "about": "“Quinazolinones as PARP14 inhibitors” (Ribon Therapeutics Inc., priority 2017, dated 2020)", "note": "pIC50: −log10 of the molar value. Where a name gives a salt, the structure may show the parent alone."}
{"biological_target": "catalytic domain of human PARP14 (Homo sapiens (Human), UniProt Q460N5)", "sequence (Q460N5 1611-1801)": "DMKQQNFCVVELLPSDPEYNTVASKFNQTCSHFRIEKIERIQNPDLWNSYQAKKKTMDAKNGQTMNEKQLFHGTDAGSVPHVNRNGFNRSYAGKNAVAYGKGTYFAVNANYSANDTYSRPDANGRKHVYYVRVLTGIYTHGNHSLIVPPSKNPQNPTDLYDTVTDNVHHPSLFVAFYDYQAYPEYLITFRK", "assay": "Enzymatic assay for inhibition of PARP14 (DELFIA, auto-modification with biotin-NAD)", "format": "biochemical", "details": "auto-modification of PARP14 by biotin-NAD, 50 nM PARP14, 3 μM biotin-NAD", "description": "An N-terminal His-TEV fusion tag was used to purify the protein from cell lysates. The His-TEV tag was left on the protein for use in the enzymatic assay.\nEnzymatic inhibition of PARP14 was measured using a dissociation-enhanced lanthanide fluorescence immunoassay (DELFIA) monitoring the auto-modification of PARP14 by biotinylated nicotinamide adenine dinucleotide (biotin-NAD). 1 μL of a dose response curve of each test compound was spotted in 384-well nickel-coated white microplates (Thermo) using a Mosquito (TTP Labtech). Reactions were performed in a 50 μL volume by adding 40 μL of PARP14 in assay buffer (20 mM HEPES pH==8, 100 mM NaCl, 0.1% bovine serum albumin, 2 mM DTT and 0.002%0 Tween20), incubating with test compound at 25° C. for 30 min, then adding 10 μL of biotin-NAD (Biolog). The final concentrations of PARP14 and biotin-NAD are 50 nM and 3 μM, respectively. Reactions proceeded at 25° C. for 3 h, then were quenched with 5 μL of 10 mM unmodified nicotinamide adenine dinucleotide (Sigma-Aldrich). The quenched reactions were washed 3 times with 100 μL of TBST wash buffer (50 mM Tris-HCl, 150 mM NaCl and 0.1% Tween20). Next, to the washed and dried plate was added 25 μL of DELFIA Europium-N1 streptavidin (Perkin Elmer) diluted in DELFIA assay buffer (Perkin Elmer). After a 30 min incubation at 25° C., the plate was washed 5 times with TBST wash buffer. Finally, 25 μL of DELFIA enhancement solution was added. After a 5 min incubation the plate was read on an Envision platereader equipped with a LANCE/DELFIA top mirror (Perkin Elmer) using excitation of 340 nm and emission of 615 nm to measure the amount of Europium present in each well, informing on the amount of biotin-NAD that was transferred in the automodification reaction.\n[formula] where ex615cmpd is the emission from the compound treated well, ex615min is the emission from the rucaparib treated positive control well and ex615max is the emission from the DMSO treated negative control well.\nThe % inhibition values were plotted as a function of compound concentration and the following 4-parameter fit was applied to derive the IC50 values:\n[formula] where top and bottom are normally allowed to float, but may be fixed at 100 or 0 respectively in a 3-parameter fit. The Hill Coefficient is normally allowed to float but may also be fixed at 1 in a 3-parameter fit. Y is the % inhibition and X is the compound concentration."}
{"smiles": "N#Cc1ccc2c(=O)[nH]c(CSC3CCOCC3)nc2c1", "note": "[Example 1, 4-Oxo-2-(((tetrahydro-2H-pyran-4-yl)thio)methyl)-3,4-dihydroquinazoline-7-carbonitrile]", "pIC50": "< 5.00"}
{"smiles": "Cc1cccc2c(=O)[nH]c(CSC3CCOCC3)nc12", "note": "[Example 2]", "pIC50": "> 6.00"}
{"smiles": "Cc1ccc2nc(CSC3CCOCC3)[nH]c(=O)c2c1", "note": "[Example 3]", "pIC50": "5.00 to 6.00"}
{"smiles": "COc1ccc2nc(CSC3CCOCC3)[nH]c(=O)c2c1", "note": "[Example 4]", "pIC50": "< 5.00"}
{"smiles": "O=c1[nH]c(CSC2CCOCC2)nc2c(Cl)cccc12", "note": "[Example 5]", "pIC50": "5.00 to 6.00"}
{"smiles": "COc1cccc2c(=O)[nH]c(CSC3CCOCC3)nc12", "note": "[Example 6]", "pIC50": "5.00 to 6.00"}
{"smiles": "Cc1cccc2c(=O)[nH]c(C(C)SC3CCOCC3)nc12", "note": "(centres unmarked) [Example 7]", "pIC50": "< 5.00"}
{"smiles": "Cc1ccc(F)c2c(=O)[nH]c(CSC3CCOCC3)nc12", "note": "[Example 8]", "pIC50": "> 6.00"}
{"smiles": "Cc1cccc2nc(CSC3CCOCC3)[nH]c(=O)c12", "note": "[Example 9]", "pIC50": "5.00 to 6.00"}
{"smiles": "O=c1[nH]c(CSC2CCOCC2)nc2c(Cc3ccccc3)cccc12", "note": "[Example 10]", "pIC50": "< 5.00"}
{"smiles": "O=c1[nH]c(CSC2CCOCC2)nc2cc(Cc3ccccc3)ccc12", "note": "[Example 11]", "pIC50": "< 5.00"}
{"smiles": "Cc1cccc2c(=O)[nH]c(CSCC3CCOCC3)nc12", "note": "[Example 12, 8-Methyl-2-((((tetrahydro-2H-pyran-4-yl)methyl)thio)methyl)quinazolin-4(3H)-one]", "pIC50": "5.00 to 6.00"}
{"smiles": "Cc1cccc2c(=O)[nH]c(CSC3CCNCC3)nc12", "note": "[Example 13, 8-Methyl-2-((piperidin-4-ylthio)methyl)quinazolin-4(3H)-one Trifluoroacetate]", "pIC50": "> 6.00"}
{"smiles": "Cc1cccc2c(=O)[nH]c(CSC3CCN(C)CC3)nc12", "note": "[Example 14, 8-Methyl-2-(((1-methylpiperidin-4-yl)thio)methyl)quinazolin-4(3H)-one]", "pIC50": "5.00 to 6.00"}
{"smiles": "Cc1cccc2c(=O)[nH]c(CSC3CCNC3)nc12", "note": "(centres unmarked) [Example 15, 8-Methyl-2-((pyrrolidin-3-ylthio)methyl)quinazolin-4(3H)-one trifluoroacetate]", "pIC50": "5.00 to 6.00"}
{"smiles": "Cc1cccc2c(=O)[nH]c(CSC3CCN(C)C3)nc12", "note": "(centres unmarked) [Example 16, 8-Methyl-2-(((1-methylpyrrolidin-3-yl)thio)methyl)quinazolin-4(3H)-one]", "pIC50": "5.00 to 6.00"}
{"smiles": "CC(=O)N1CCC(SCc2nc3c(C)cccc3c(=O)[nH]2)CC1", "note": "[Example 17, 2-(((1-Acetylpiperidin-4-yl)thio)methyl)-8-methylquinazolin-4(3H)-one]", "pIC50": "5.00 to 6.00"}
{"smiles": "Cc1cccc2c(=O)[nH]c(CSC3CCN(Cc4ccccn4)CC3)nc12", "note": "[Example 18, 8-Methyl-2-(((1-(pyridin-2-ylmethyl)piperidin-4-yl)thio)methyl)quinazolin-4(3H)-one]", "pIC50": "> 6.00"}
{"smiles": "Cc1cccc2c(=O)[nH]c(CS(=O)(=O)C3CCOCC3)nc12", "note": "[Example 19, 8-Methyl-2-(((tetrahydro-2H-pyran-4-yl)sulfonyl)methyl)quinazolin-4(3H)-one]", "pIC50": "< 5.00"}
{"smiles": "Cc1cccc2c(=O)[nH]c(CSC3CCCNCC3)nc12", "note": "(centres unmarked) [Example 20, 2-((Azepan-4-ylthio)methyl)-8-methylquinazolin-4(3H)-one Trifluoroacetate]", "pIC50": "> 6.00"}
{"smiles": "Cc1cccc2c(=O)[nH]c(CSC3CCC(N(C)C)CC3)nc12", "note": "(centres unmarked) [Example 21, 2-(((4-(Dimethylamino)cyclohexyl)thio)methyl)-8-methylquinazolin-4(3H)-one]", "pIC50": "> 6.00"}
{"smiles": "Cc1cccc2c(=O)[nH]c(CSC3CCC(O)CC3)nc12", "note": "(centres unmarked) [Example 22, 2-(((4-Hydroxycyclohexyl)thio)methyl)-8-methylquinazolin-4(3H)-one]", "pIC50": "> 6.00"}
{"smiles": "Cc1cccc2c(=O)[nH]c(CS[C@H]3CC[C@H](O)CC3)nc12", "note": "[Example 23, 2-((((trans)-4-Hydroxycyclohexyl)thio)methyl)-8-methylquinazolin-4(3H)-one]", "pIC50": "> 6.00"}
{"smiles": "Cc1cccc2c(=O)[nH]c(CS[C@H]3CC[C@@H](O)CC3)nc12", "note": "[Example 24, 2-((((cis)-4-Hydroxycyclohexyl)thio)methyl)-8-methylquinazolin-4(3H)-one]", "pIC50": "5.00 to 6.00"}
{"smiles": "Cc1cccc2c(=O)[nH]c(CSC3CNC3)nc12", "note": "[Example 25, 2-((Azetidin-3-ylthio)methyl)-8-methylquinazolin-4(3H)-one Trifluoroacetate]", "pIC50": "< 5.00"}
{"smiles": "CO[C@H]1CC[C@H](SCc2nc3c(C)cccc3c(=O)[nH]2)CC1", "note": "[Example 26, 2-((((trans)-4-Methoxycyclohexyl)thio)methyl)-8-methylquinazolin-4(3H)-one]", "pIC50": "5.00 to 6.00"}
{"smiles": "CO[C@H]1CC[C@@H](SCc2nc3c(C)cccc3c(=O)[nH]2)CC1", "note": "[Example 27, 2-((((cis)-4-Methoxycyclohexyl)thio)methyl)-8-methylquinazolin-4(3H)-one]", "pIC50": "5.00 to 6.00"}
{"smiles": "N#Cc1cccc2c(=O)[nH]c(CSC3CCOCC3)nc12", "note": "[Example 28, 4-Oxo-2-(((tetrahydro-2H-pyran-4-yl)thio)methyl)-3,4-dihydroquinazoline-8-carbonitrile]", "pIC50": "< 5.00"}
{"smiles": "O=c1[nH]c(CSC2CCOCC2)nc2cc(Oc3ccccc3)ccc12", "note": "[Example 29, 7-Phenoxy-2-(((tetrahydro-2H-pyran-4-yl)thio)methyl)quinazolin-4(3H)-one]", "pIC50": "5.00 to 6.00"}
{"smiles": "O=c1[nH]c(CSC2CCOCC2)nc2cc(F)ccc12", "note": "[Example 30, 7-Fluoro-2-(((tetrahydro-2H-pyran-4-yl)thio)methyl)quinazolin-4(3H)-one]", "pIC50": "5.00 to 6.00"}
{"smiles": "COc1ccc2c(=O)[nH]c(CSC3CCOCC3)nc2c1", "note": "[Example 31, 7-Methoxy-2-(((tetrahydro-2H-pyran-4-yl)thio)methyl)quinazolin-4(3H)-one]", "pIC50": "5.00 to 6.00"}
{"smiles": "Cc1cccc2c(=O)[nH]c(CSC3CCCN(C)C3)nc12", "note": "(centres unmarked) [Example 32, 8-Methyl-2-(((1-methylpiperidin-3-yl)thio)methyl)quinazolin-4(3H)-one]", "pIC50": "5.00 to 6.00"}
{"smiles": "Cc1c(F)ccc2c(=O)[nH]c(CSC3CCOCC3)nc12", "note": "[Example 33, 7-Fluoro-8-methyl-2-(((tetrahydro-2H-pyran-4-yl)thio)methyl)quinazolin-4(3H)-one]", "pIC50": "> 6.00"}
{"smiles": "Cc1ccc(Cl)c2c(=O)[nH]c(CSC3CCOCC3)nc12", "note": "[Example 34, 5-Chloro-8-methyl-2-(((tetrahydro-2H-pyran-4-yl)thio)methyl)quinazolin-4(3H)-one]", "pIC50": "> 6.00"}
{"smiles": "Cc1ccc(C(F)(F)F)c2c(=O)[nH]c(CSC3CCOCC3)nc12", "note": "[Example 35, 8-Methyl-2-(((tetrahydro-2H-pyran-4-yl)thio)methyl)-5-(trifluoromethyl)quinazolin-4(3H)-one]", "pIC50": "> 6.00"}
{"smiles": "O=c1[nH]c(CSC2CCOCC2)nc2cccnc12", "note": "[Example 36, 2-(((Tetrahydro-2H-pyran-4-yl)thio)methyl)pyrido[3,2-d]pyrimidin-4(3H)-one]", "pIC50": "< 5.00"}
{"smiles": "O=c1[nH]c(CSC2CCOCC2)nc2cnccc12", "note": "[Example 37, 2-(((Tetrahydro-2H-pyran-4-yl)thio)methyl)pyrido[3,4-d]pyrimidin-4(3H)-one]", "pIC50": "< 5.00"}
{"smiles": "Cc1cccc2c(=O)[nH]c(CS[C@H]3C[C@H](OCc4ccccc4)C3)nc12", "note": "[Example 38, 2-((((trans)-3-(Benzyloxy)cyclobutyl)thio)methyl)-8-methylquinazolin-4(3H)-one]", "pIC50": "< 5.00"}
{"smiles": "Cc1cccc2c(=O)[nH]c(CSC3COC3)nc12", "note": "[Example 39, 8-Methyl-2-((oxetan-3-ylthio)methyl)quinazolin-4(3H)-one]", "pIC50": "< 5.00"}
{"smiles": "O=c1[nH]c(CSC2CCOCC2)nc2ccncc12", "note": "[Example 40, 2-(((Tetrahydro-2H-pyran-4-yl)thio)methyl)pyrido[4,3-d]pyrimidin-4(3H)-one]", "pIC50": "< 5.00"}
{"smiles": "Cc1ccnc2c(=O)[nH]c(CSC3CCOCC3)nc12", "note": "[Example 41, 8-Methyl-2-(((tetrahydro-2H-pyran-4-yl)thio)methyl)pyrido[3,2-d]pyrimidin-4(3H)-one]", "pIC50": "< 5.00"}
{"smiles": "Cc1nccc2c(=O)[nH]c(CSC3CCOCC3)nc12", "note": "[Example 42, 8-Methyl-2-(((tetrahydro-2H-pyran-4-yl)thio)methyl)pyrido[3,4-d]pyrimidin-4(3H)-one]", "pIC50": "< 5.00"}
{"smiles": "O=c1[nH]c(CSC2CCOCC2)nc2ncccc12", "note": "[Example 43, 2-(((Tetrahydro-2H-pyran-4-yl)thio)methyl)pyrido[2,3-d]pyrimidin-4(3H)-one]", "pIC50": "< 5.00"}
{"smiles": "Cc1cc(Cl)cc2c(=O)[nH]c(CSC3CCOCC3)nc12", "note": "[Example 44, 6-Chloro-8-methyl-2-(((tetrahydro-2H-pyran-4-yl)thio)methyl)quinazolin-4(3H)-one]", "pIC50": "> 6.00"}
